Results on 3 molecules are retold here after publication PMC8003416, “Modulation of Human Phenylalanine Hydroxylase by 3-Hydroxyquinolin-2(1H)-One Derivatives” (Biomolecules, 2021).

The target of data set [1] is T1, Factor Xa (FXa) (Bos taurus, UniProt P00743).
T1 construct: purchased New England Biolabs
The experiment in a line: Factor Xa activity control with Boc-Ile-Glu-Gly-Arg-AMC. The format is biochemical. The settings on record: 100 μM compound; for FXa relative (residual) enzyme activity: 1% DMSO control = 100%; for Factor Xa Abs/min: control 597 ± 16. The protocol:
Self-assembly of the dimeric forms of hPAH-RD^1–120 was followed in real-time at 25 °C upon cleavage of MBP-FXa-hPAH-RD^1–120 with FXa (New England Biolabs) to release the MBP fusion partner. Assays (n = 3) were performed in the absence or presence of tested compounds as described in [17]. Briefly, FXa (at a final ratio 1:150 (w/w) relative to the fusion protein) was added to the reaction mixture containing the MBP-FXa-hPAH-RD^1–120 fusion protein (0.74 mg/mL), 20 mM Na-HEPES, 100 mM NaCl, pH 7.0 and tested 3HQ (100 μM). The increase in absorbance at 350 nm was followed for 180 min on a FLUOstar Omega (BMG Labtech) microplate reader. A shaking step was introduced before each measurement. Appropriate control assays were performed and included: (i) a positive control consisting of MBP-FXa-hPAH-RD^1–120 in the presence of FXa, 1% DMSO and in the absence of compounds; and (ii) a negative control consisting of MBP-FXa-hPAH-RD^1–120 in the absence of FXa and compounds. For all the assays, aliquots of the aggregation reaction were collected at the end of the reaction (180 min) and analyzed by SDS-PAGE to confirm the extent of MBP cleavage by FXa. In addition, the effect of tested compounds on FXa activity was monitored using the synthetic FXa substrate Boc–Ile–Glu-Gly–Arg–AMC (t-(Butyloxycarbonyl)-isoleucylglutamylglycylarginyl-7-amido-4-methylcoumarin; from Bachem). Assays (n = 3) were performed in a 96-well plate, in a final volume of 200 μL containing 20 mM Na-HEPES, 100 mM NaCl, pH 7.0, 5 μg/mL of FXa, 50 μM of Boc–Ile-Glu–Gly–Arg–AMC and 100 μM of 3HQ derivatives. Fluorescence was measured in real-time (λexc 360 nm and λem 460 nm) during 30 min, at 25 °C. Controls were performed using substrate alone with 1% DMSO (negative control) and FXa with no compounds and 1% DMSO (positive control).

Data set [2] has as its target T2, human phenylalanine hydroxylase (hPAH) (Homo sapiens, UniProt P00439).
T2 construct: Recombinant full-length wild-type (WT) hPAH was expressed in E. coli Top10 cells in fusion with a hexa-histidyl peptide; made in house; host or cells: E. coli Top10
T2 sequence (P00439 1-452): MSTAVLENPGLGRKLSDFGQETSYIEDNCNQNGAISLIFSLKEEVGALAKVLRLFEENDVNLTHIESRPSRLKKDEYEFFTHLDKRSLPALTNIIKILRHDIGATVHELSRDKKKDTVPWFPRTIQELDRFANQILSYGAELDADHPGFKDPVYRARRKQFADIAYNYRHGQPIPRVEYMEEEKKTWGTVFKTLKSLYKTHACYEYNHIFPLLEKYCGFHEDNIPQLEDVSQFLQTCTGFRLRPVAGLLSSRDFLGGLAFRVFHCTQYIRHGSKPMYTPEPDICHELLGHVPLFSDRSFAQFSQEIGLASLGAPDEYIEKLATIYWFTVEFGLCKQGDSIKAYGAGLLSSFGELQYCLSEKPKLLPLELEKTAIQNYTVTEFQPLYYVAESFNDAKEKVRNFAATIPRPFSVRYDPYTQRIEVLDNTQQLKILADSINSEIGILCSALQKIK
The experiment in a line: Small-angle X-ray scattering of hPAH. The settings on record: 200 μM in buffer/2% DMSO. As for the experimental part: Small-angle X-ray scattering experiments were performed at the Diamond Light Source B21 [30] beamline at a wavelength of 0.95 Å. Tetrameric hPAH was thawed on ice, centrifuged at 12,000× g for 8 min at 4 °C, and quantitated using a NanoDrop (molar extinction coefficient: 10.09 mg/mL/cm) prior to data acquisition. Measurements were performed in static mode with the automated sample changer at 20 °C using a protein concentration of 86 μM (monomer) in 20 mM Na-HEPES, 200 mM NaCl, pH 7.0 in the absence or presence of 2% DMSO. L-Phe and compound 9 were tested at a final concentration of 200 μM in 2% DMSO. Data were recorded using a Pilatus 2M detector covering a momentum transfer 0.0031 < s < 0.380 Å-1 (s = 4π sin θ/λ, where 2θ is the scattering angle). The data were processed and analyzed using the ATSAS program suite. The sample frames were monitored for radiation damage, the selected frames were averaged, and the buffer contribution was subtracted using PRIMUS [32]. The radius of gyration (Rg) and the maximum particle dimension (Dmax) were estimated from the Guinier approximation using PRIMUS and from the pair-distribution function P(r) using the GNOM package, respectively. Fitting of the experimental curves and the theoretical curves computed from SASBDB models was performed using CRYSOL [31].

The subject of data set [3] is HEK-293T cells. The experiment in a line: Propidium iodide exclusion assay (membrane integrity). The format is cell-based. The settings on record: 100 μM, 24 h; negative control 1.0 ± 0.1. As for the experimental part: Cytotoxicity of selected 3HQs was assessed in HEK-293T cells using the Alamar Blue assay as a general cell viability endpoint method that monitors the cellular metabolic state, and the propidium iodide (PI) exclusion assay was used to evaluate membrane integrity essentially as described. The 3HQs were tested at a final concentration of 50 and 100 μM (two independent assays; five replicates each). Control assays were performed using 1% DMSO (negative control), or SDS at 1 mg/mL as a positive control of cell death in the PI assay. […] The culture medium was replaced by fresh medium (supplemented as above) containing the different 3HQs to be analyzed. After 24 h incubation, the culture medium was replaced by […] PI (Sigma-Aldrich) in fresh medium (stock solution 1.5 mM in DMSO) and fluorescence was measured (λexc 485 nm, λem 590 nm) in a FLUOstar Omega microplate reader. […] The cells were further incubated for 3 h and fluorescence was measured (λexc 530 nm, λem 590 nm) in a FLUOstar Omega microplate reader (BMG Labtech). The relative PI uptake and cell viability (%) were calculated using Equations (3) and (4), respectively. Relative PI uptake = Fluorescence intensitysample/Fluorescence intensitynegative control(3) Relative cell viability (%) = Fluorescence intensitysample/Fluorescence intensitycontrol × 100(4)

SMILES strings stand for the structures.

T1 sequence (P00743 234-492 limits assumed): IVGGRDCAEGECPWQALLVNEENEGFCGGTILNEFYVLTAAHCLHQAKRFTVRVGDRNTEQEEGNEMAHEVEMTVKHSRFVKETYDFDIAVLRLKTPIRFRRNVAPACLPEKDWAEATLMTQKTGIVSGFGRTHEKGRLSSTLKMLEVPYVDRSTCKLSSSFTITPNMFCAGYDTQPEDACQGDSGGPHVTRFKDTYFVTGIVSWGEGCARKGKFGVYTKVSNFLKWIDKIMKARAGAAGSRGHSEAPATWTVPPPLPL
T1 sequence (P00743 41-180 partner limits assumed): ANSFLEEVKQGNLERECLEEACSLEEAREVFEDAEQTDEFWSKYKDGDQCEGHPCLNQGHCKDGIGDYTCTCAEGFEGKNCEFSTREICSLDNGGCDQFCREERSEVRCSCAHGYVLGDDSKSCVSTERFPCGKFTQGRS

As to `COC(=O)CC[C@H](NC(=O)c1c(O)c(=O)[nH]c2ccc(OC(F)(F)F)cc12)C(=O)OC` [Compound 9], in data set [1], the “FXa relative (residual) enzyme activity” value amounted to 77% and the “Factor Xa Abs/min” value was 465 ± 29 Abs/min. Moreover, in data set [2], the “Dmax of hPAH” value is on record as 189 Å, the “MM of hPAH (MM = VP/1.6)” value is 268 kDa, the “Rg^Guinier of hPAH” value came out at 52.14 ± 0.07 Å and the “Rg^P(r) of hPAH” value was 52.00 ± 0.05 Å. The “VP (excluded particle volume) of hPAH” value in data set [2] is 428,899 Å^3. The “relative PI uptake” value in data set [3] amounted to 1.0 ± 0.0.

For `N[C@@H](Cc1ccccc1)C(=O)O` [L-Phe, L-phenylalanine, reference compound], in data set [2], the “Dmax of hPAH” value is listed as 179 Å, the “MM of hPAH (MM = VP/1.6)” value was 393 kDa, the “Rg^Guinier of hPAH” value is reported as 52.73 ± 0.07 Å and the “VP (excluded particle volume) of hPAH” value is 629,301 Å^3.

On to `COC(=O)CNC(=O)c1c(O)c(=O)[nH]c2ccc(OC(F)(F)F)cc12` [Compound 11], for which, in data set [1], the “FXa relative (residual) enzyme activity” value came out at 69% and the “Factor Xa Abs/min” value is on record as 407 ± 8 Abs/min. The “relative PI uptake” value in data set [3] came to 1.0 ± 0.1.
